According to patent US9176114B2, “Cell culture model for acquired chemoresistance of chronic myelogenous leukemia and related methods for identifying agents to overcome resistance” (CITY OF HOPE, priority 2007, dated 2015):
“Also recorded” adds a separate entry of the source. Values belong to the molecule of their own block, whether it stands above or below them.

How the values were obtained:
FOXO1 = assay: Flow cytometry assay of acetylation of FOXO1 in KCL-22 cells; type: cell-based, human; conditions: compound treatment for 24 h
Experimental: SIRT1 inhibitor-induced acetylation of cellular SIRT1 substrates, Ku70 and FOXO proteins, are determined by immunoprecipitation of these proteins followed by Western blot analysis for acetyl lysine. Acetylation of FOXO1 is also directly examined by flow cytometry-based analysis as done in FIG. 40D.

SIRT1 = molecular target: T1, SIRT1 (Homo sapiens, UniProt Q96EB6); assay: FRET-based SIRT1 inhibition assay; conditions: All compounds in 50 μM
T1 sequence (Q96EB6 1-747): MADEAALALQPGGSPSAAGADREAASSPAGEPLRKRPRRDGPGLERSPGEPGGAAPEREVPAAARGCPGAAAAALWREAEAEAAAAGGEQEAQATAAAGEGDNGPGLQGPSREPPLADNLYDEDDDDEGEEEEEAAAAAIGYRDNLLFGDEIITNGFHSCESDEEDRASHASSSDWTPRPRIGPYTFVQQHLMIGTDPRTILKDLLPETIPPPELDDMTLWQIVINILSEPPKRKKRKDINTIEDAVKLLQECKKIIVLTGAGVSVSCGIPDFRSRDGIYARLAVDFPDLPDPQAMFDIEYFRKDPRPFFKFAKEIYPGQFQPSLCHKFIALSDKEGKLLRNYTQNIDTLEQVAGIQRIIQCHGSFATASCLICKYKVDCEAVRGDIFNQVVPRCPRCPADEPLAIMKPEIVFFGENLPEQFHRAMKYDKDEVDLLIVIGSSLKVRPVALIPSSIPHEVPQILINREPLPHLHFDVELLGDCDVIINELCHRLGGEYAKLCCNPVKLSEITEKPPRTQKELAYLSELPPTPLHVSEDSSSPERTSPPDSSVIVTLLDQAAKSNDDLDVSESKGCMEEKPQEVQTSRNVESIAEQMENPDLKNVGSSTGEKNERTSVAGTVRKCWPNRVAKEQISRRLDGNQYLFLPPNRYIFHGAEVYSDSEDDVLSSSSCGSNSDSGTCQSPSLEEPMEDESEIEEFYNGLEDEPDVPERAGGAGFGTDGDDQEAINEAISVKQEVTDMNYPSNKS

KCL-22 cells [1] = assay: Resistance assay: relapse of KCL-22 cells in prolonged liquid culture (CML acquired resistance model); type: cell-based, human; conditions: for relapse of KCL-22 cells on 5 μM STI-571 in combination / cell death by the inhibitor alone: 300 μM splitomicin or 15 mM nicotinamide; for cell death by the inhibitor alone: first two weeks; for relapse of KCL-22 cells on imatinib (STI-571) in combination with the inhibitor: prolonged culture
Excerpt: (§1) Cells were maintained in these cultures without changing medium.
Cells were maintained in these cultures without changing medium. Aliquots of cells were taken out at specified time points and cell numbers counted using a hematocytometer. Cell viability was accessed by trypan blue exclusion where necessary.

HIC1 = HIC1 expression / SIRT1 level after HDAC and DNMT inhibitors; type: cell-based, human; conditions: KCL-22 cells, alone or in combination
Excerpt: Total cellular RNA with Trizol (Invitrogen) using a standard protocol. First strand DNA was synthesized and HIC1 expression by quantitative real-time RT-PCR using a kit with SYBR Green label (Invitrogen) as per the manufacture's instruction on a BioRad machine OPTICON. The following are the HIC1 primers (spanning introns), 5′-[…]-3′(exon 1a) and 5′-[…]-3′ (Exon 2). [>ref|NT—010718.15|Hs17—10875:1561637-1565694 Homo sapiens chromosome 17 genomic contig, reference assembly]
SIRT1 expression was analyzed by Western blot using 1:5000 diluted rabbit monoclonal SIRT1 antibody (Epitomics). Controls used were GAPDH or actin as loading controls with rabbit anti-GAPDH (Trevigen) or anti-actin (Sigma) at 1:5000 dilution. GAPDH [>ref|NT—009759.15|Hs12—9916:6497433-6502281 Homo sapiens chromosome 12 genomic contig, reference assembly] primers used are as follows: […]

BCR-ABL mutants = conditions: cited from earlier work
[2] = tested on: CML patients with T315I mutation; conditions: human, in vivo; cited from earlier work
K562 cells [3] = assay: Growth factor-induced transient resistance (serum-free medium, basic supplements, insulin); type: cell-based, human
Experimental: (A) Growth curves of K562 cells in serum medium, and serum-free medium supplied with basic supplements containing 5 μg/ml insulin and 5 μg/ml transferrin (basic) with or without 75 ng/ml EGF, 25 μg/ml HDL or both (EH). […] Relative survival of imatinib treated cells was calculated by comparison to no drug treatment. Pre-incubation for two days renders resistance. […] Since sirtinol is insoluble in SF medium, HDL 25 μg/ml was added to help dissolve the drug. (D) Effects of basic supplements in serum medium. […] Viable cells were counted one and three days after the treatment. […] (F) Effects of insulin in resistance.
Whether serum-free medium supplied with select growth factors provides a better culture environment for developing CML chemoresistance was determined. Serum-free (SF) medium with insulin, transferring, epidermal growth factor (EGF) and high density lipoprotein (HDL) was used. SF medium with the basic supplements (5 μg/ml insulin and 5 μg/ml transferring) was sufficient to support growth of both K562 cells (FIG. 13A) and KCL-22 cells. […] Sirtinol is able to overcome CML resistance in SF culture.
Transient resistance conferred by insulin and transferrin supplement is of interest as insulin receptor is overexpressed in about 90% primary CML cells. The key insulin downstream target phosphatidylinositol-3 kinase (PI3K) is required for BCR-ABL mediated transformation and inhibition of PI3K-Akt-mTor pathway has been explored to overcome CML chemoresistance. SIRT1 is a key gene for regulating insulin secretion and directly regulates Akt downstream target FOXO proteins through deacetylation. Therefore, the effect of insulin itself for transient resistance to imatinib and the response of sirtinol treatment were examined.

K562 cells [4] = assay: Cell growth, apoptosis (annexin V) and cell cycle analysis; type: cell-based, human
Experimental: (§2) One half million cells per well were seeded in a 24-well plate and at 2 and 4 days after initiation of drug treatment, surviving cells were counted (A, B). […] The percentage of annexin V positive cells including early and late apoptotic cells was plotted underneath FACS charts.
(§3) Cell apoptosis was analyzed with annexin V kit (BD Pharminggen) as per the manufacturer's instruction.

KCL-22 cells [5] = assay: as above; type: cell-based, human
Experimental: as §2, §3

Aurora A = assay: Expression of Aurora kinases by Western blot in KCL-22M cells; type: cell-based, human; conditions: two days of drug treatment
SD1 cells = assay: Resistance assay in BCR-ABL positive ALL cells; type: cell-based, human; conditions: 50 μM sirtinol alone or in combination with STI-571, prolonged culture
Experimental: as §1
The ability of sirtinol and imatinib to block resistance related to BCR-ABL mutations and non-mutants was determined in acute lymphocytic leukemia (ALL) cells.

Solubility = type: physicochemical
[6] = 50 μM sirtinol with 1 μM STI-571
[7] = two days treatment, PI staining

SIRT1 inhibition in FRET-based biochemical assay (SIRT1): outperformed sirtinol and tenovin-6
Structure (SMILES): CC(=NNC(=O)c1ccncc1)c1ccc2ccccc2c1O [compound 24, N′-(1-(1-hydroxy-2-naphthyl)ethylidene)isonicotinohydrazide]
acetylation of FOXO1 (FOXO1): outperformed sirtinol and tenovin-6
inhibitory activity (block of CML relapse) compared with compound 163580 (KCL-22 cells [1]): better inhibitory activity than 163580

Structure (SMILES): COc1ccc2nc3cc(Cl)ccc3c(NCCCCN3CCCC3)c2n1.Cl.Cl.Cl [compound 261408]
prevention of CML cell relapse upon imatinib compared with sirtinol (50 μM) (KCL-22 cells [1]): more effective in preventing CML cell relapse upon imatinib treatment than an effective dose of sirtinol
toxicity to cells (KCL-22 cells [1]): too toxic to cells

Structure (SMILES): CCN(C(C)=O)c1cnc(C=NNC(N)=S)c2ccccc12 [compound 687305]
prevention of CML cell relapse upon imatinib compared with sirtinol (50 μM) (KCL-22 cells [1]): more effective in preventing CML cell relapse upon imatinib treatment than an effective dose of sirtinol

Structure (SMILES): CC(=O)N[C@@H](CS)C(=O)O [NAC, N-acetylcysteine]
cytotoxicity (KCL-22 cells [1]; 50 mM NAC): significant cytotoxicity

SIRT1 inhibition in FRET-based biochemical assay (SIRT1): outperformed sirtinol and tenovin-6
Structure (SMILES): O=C(NN=Cc1c(O)ccc2ccccc12)c1ccncc1 [compound 22, N′-((2-hydroxyl-1-naphthyl)methylene)isonicotinohydrazide]
acetylation of FOXO1 (FOXO1): outperformed sirtinol and tenovin-6
inhibitory activity (block of CML relapse) compared with compound 163580 (KCL-22 cells [1]): better inhibitory activity than 163580

Structure (SMILES): Nc1ncn([C@H]2C[C@H](O)[C@@H](CO)O2)c(=O)n1 [AZA, 5-aza-2-deoxycytidine]
reactivation of HIC1 expression / reduction of SIRT1 level (HIC1): could not reactivate HIC1 expression or reduce SIRT1 level
relapse on AZA plus STI-571 (KCL-22 cells [1]; 1 μM AZA with STI-571): did successfully block relapse on 2.5 and 5 μM; also recorded: blocked relapse at 2.5 and 5 μM of STI-571
growth of KCL-22M cells (KCL-22M cells; 1 μM inhibitor): inhibited its growth but did not promote significant cell death

Structure (SMILES): Oc1ccc2ccccc2c1C1=NNc2n[nH]c(=S)n2N1 [compound 163580]
prevention of CML cell relapse upon imatinib compared with sirtinol (50 μM) (KCL-22 cells [1]): more effective in preventing CML cell relapse upon imatinib treatment than an effective dose of sirtinol

Structure (SMILES): O=C1CCc2c(ccc3ccccc23)O1 [splitomicin]
relapse of KCL-22 cells on 5 μM STI-571 in combination (KCL-22 cells [1]): effectively blocked; also recorded: blocked relapse
cell death by the inhibitor alone (KCL-22 cells [1]): did not, by themselves, induce significant cell death
relapse of KCL-22 cells on imatinib (STI-571) in combination with the inhibitor (KCL-22 cells [1]): blocks relapse

Structure (SMILES): NC(=O)c1cccnc1 [nicotinamide]
lowest dose that blocked relapse on imatinib (KCL-22 cells [1]): 1 µM
relapse of KCL-22 cells on 5 μM STI-571 in combination (KCL-22 cells [1]): effectively blocked; also recorded: blocked relapse
cell death by the inhibitor alone (KCL-22 cells [1]): did not, by themselves, induce significant cell death
relapse of KCL-22 cells on imatinib (STI-571) in combination with the inhibitor (KCL-22 cells [1]): blocks relapse

Structure (SMILES): Cc1cc(Nc2cc(N3CCN(C)CC3)nc(Sc3ccc(NC(=O)C4CC4)cc3)n2)n[nH]1 [VX-680]
inhibition of T315I BCR-ABL (BCR-ABL mutants): potently inhibits
clinical response [2]: Three CML patients with T315I mutation responded

Structure (SMILES): CC(NC(=O)c1ccccc1/N=C/c1c(O)ccc2ccccc12)c1ccccc1 (centres unmarked) [sirtinol]
transient resistance to 1 μM STI-571 from basic supplements in serum medium (K562 cells [3]; 50 μM sirtinol): abolished this transient resistance
transient resistance to 1 μM STI-571 from insulin (K562 cells [3]; sirtinol alone or in combination with STI-571): abolished this transient resistance
cell killing in SF culture (K562 cells [3]; sirtinol alone or with STI-571, K562 and KCL-22 cells, no relapse): rapid killing
cell growth (K562 cells [4]; 50 μM sirtinol alone): inhibited the growth
growth inhibition, combination (K562 cells [4]; [6]): synergized their inhibitory effects
apoptosis (annexin V) (K562 cells [4]; sirtinol alone): significantly induced annexin V positive apoptotic cells
apoptosis (annexin V), combination (K562 cells [4]; sirtinol combined with STI-571): induced more dramatic apoptosis than each individual drug
cell cycle (K562 cells [4]; [7]): rapidly increased sub-G1 and apoptotic fraction
cell growth (KCL-22 cells [5]; 50 μM sirtinol alone): inhibited the growth
growth inhibition, combination (KCL-22 cells [5]; [6]): synergized their inhibitory effects
apoptosis (annexin V) (KCL-22 cells [5]; sirtinol alone): significantly induced annexin V positive apoptotic cells
apoptosis (annexin V), combination (KCL-22 cells [5]; sirtinol combined with STI-571): induced more dramatic apoptosis than each individual drug
cell cycle (KCL-22 cells [5]; [7]): reducing S/G2 and increasing sub-G1 population
Aurora A protein in KCL-22M cells (Aurora A): degraded
recurrence on nilotinib or dasatinib in combination with SIRT1 inhibitor (KCL-22 cells [1]): effectively blocked the recurrence
relapse on 1 μM Dasatinib in combination with sirtinol (KCL-22 cells [1]): blocked relapse
relapse on […] Nilotinib in combination with SIRT1 inhibitor (KCL-22 cells [1]): blocked relapse
relapse on sirtinol alone (KCL-22 cells [1]; 50 μM sirtinol alone): resulted in relapse after two weeks
relapse of KCL-22 cells on imatinib (STI-571) in combination with the inhibitor (KCL-22 cells [1]): blocks relapse
relapse of KCL-22 cells on imatinib (STI-571) in combination with the inhibitor (KCL-22 cells [1]; listed as Sirtinol): blocked relapse at all dosages of STI-571
effect of sirtinol on SD1 cells (SD1 cells): eliminated these cells
effective concentration in vivo (limited by solubility) (Solubility): not obtainable in vivo
solubility in SF medium (Solubility; serum-free medium): insoluble
cell death of KCL-22M cells, combination (KCL-22M cells; 50 μM sirtinol with 1 μM AZA): induced partial cell death
growth of KCL-22M cells, combination (KCL-22M cells; sirtinol (50 μM) with STI-571 ([…])): able to inhibit cell growth

Structure (SMILES): Cc1cn(-c2cc(NC(=O)c3ccc(C)c(Nc4nccc(-c5cccnc5)n4)c3)cc(C(F)(F)F)c2)cn1 [Nilotinib]
BCR-ABL mutants inhibited (BCR-ABL mutants): inhibits most of the known mutants with the exception of the T315I mutation

Structure (SMILES): Clc1ccc2nc(CCSCCc3nc4ccc(Cl)cc4[nH]3)[nH]c2c1 [compound 628445]
prevention of CML cell relapse upon imatinib compared with sirtinol (50 μM) (KCL-22 cells [1]): more effective in preventing CML cell relapse upon imatinib treatment than an effective dose of sirtinol
